Patent US4267102A, “Bleomycin group antibiotics” (Nippon Kayaku Kabushiki Kaisha, priority 1979, dated 1981)
Where “and” joins values, the source holds several entries; their conditions need not be identical. Identical values can stand only once.

Legend:
[1] = test system: DNA labelled with tritium; test: DNA-strand cleaving activity in cell-free system; format: biochemical; settings: copper-free compound with divalent iron, oxygen, 37° C., 5 minutes
Description: 2. DNA-strand cleaving activity in cell-free system.
The mechanism of carcinostatic action of bleomycins has been believed to involve the cleavage of DNA chain caused by the joint action of copper-free bleomycins, divalent iron and molecular oxygen. Similar activity of N-methylbleomycins were also confirmed.
A mixture of divalent iron and a copper-free N-methylbleomycin was dissolved together with DNA labelled with tritium in a M/10 phosphate buffer of pH 7.4 The resulting solution was allowed to react in the presence of oxygen at 37° C. for 5 minutes. To the reaction mixture, was added 25% trichloroacetic acid. The precipitate was removed by centrifugation and the supernatant (acid-soluble fraction) was assayed for radioactivity to obtain the percentage of acid-soluble DNA in acid. This percentage was utilized as an index of the degree of DNA-strand cleavage. Similar test was repeated on bleomycins A2 and B2 used as reference.

HeLa S3 cells = test: Growth inhibitory effect on cultured HeLa cells; format: cell-based; settings: Cu-free; three days cultivation with sample
Description: 3. Growth inhibitory effect on cultured HeLa cells.
HeLa S3 cells were inoculated into a medium (MEM with the addition of 10% calf serum) in a plastic Petri dish. After two days from the inoculation, N-methylbleomycinic acid or a N-methylbleomycin was added to the dish and after cultivation for further three days, the number of cells was counted. The growth inhibition (%) was calculated by the following equation: [formula] where A is the final number of cells on the third day from the addition of the test sample, B the final number of cells in a control culture without the addition of the test sample, and C the number of cells at the time of addition of the test sample. The value of ID50 (concentration for 50% inhibition) was calculated from the graph obtained by plotting the concentration of sample against the growth inhibition. A similar test was performed on bleomycinic acid and bleomycins used as control.

[2] = test system: Mycobacterium smegmatis ATCC 607; test: Antimicrobial activity against Mycobacterium smegmatis ATCC 607 (cylinder agar plate method); format: cell-based
Description: 4. Antimicrobial activity against Mycobacterium smegmatis ATCC 607.
The antibacterial activity was assayed by the cylinder agar plate method against the above bacterium by assuming the activity of standard copper-free bleomycin A2 to be 1,000 mcg units/mg.
Note: Antimicrobial activity was assayed against Mycobacterium smegmatis ATCC 607 by assuming the activity of bleomycin A2 (copper-free form) to be 1,000 mcg units/mg. The same shall apply hereinafter.

inactivating enzyme = inactivating enzyme (Rattus norvegicus, UniProt P70645); settings: rat liver extract, 37° C., 15, 30, 60 and 120 minutes; residual activity against Mycobacterium smegmatis ATCC 607
Description: Test for resistance to inactivating enzyme.
(1) Extraction of inactivating enzyme.
The liver of female Donryu strain rat was ground in twice by weight of M/15 phosphate buffer of pH 7.2 to prepare a tissue emulsion. The emulsion was centrifuged at 105,000×G for 60 minutes and the supernatant was dialyzed with the above buffer. A high molecular fraction thus obtained was used as the extract solution of an inactivating enzyme.
(2) Examination of inactivating reaction.

[3] = sample concentration 6.25 mcg/ml
[4] = sample concentration 12.5 mcg/ml
[5] = Table 6, Cu-complex, standard copper-free bleomycin A2 assumed 1,000 mcg units/mg
[6] = Table 6, Cu-free, standard copper-free bleomycin A2 assumed 1,000 mcg units/mg
[7] = Examples, step A product: copper complex hydrochloride, bleomycin A2 (copper-free form) assumed 1,000 mcg units/mg
[8] = Examples, step B product: copper-free hydrochloride, bleomycin A2 (copper-free form) assumed 1,000 mcg units/mg

Sequence of inactivating enzyme (P70645 whole entry): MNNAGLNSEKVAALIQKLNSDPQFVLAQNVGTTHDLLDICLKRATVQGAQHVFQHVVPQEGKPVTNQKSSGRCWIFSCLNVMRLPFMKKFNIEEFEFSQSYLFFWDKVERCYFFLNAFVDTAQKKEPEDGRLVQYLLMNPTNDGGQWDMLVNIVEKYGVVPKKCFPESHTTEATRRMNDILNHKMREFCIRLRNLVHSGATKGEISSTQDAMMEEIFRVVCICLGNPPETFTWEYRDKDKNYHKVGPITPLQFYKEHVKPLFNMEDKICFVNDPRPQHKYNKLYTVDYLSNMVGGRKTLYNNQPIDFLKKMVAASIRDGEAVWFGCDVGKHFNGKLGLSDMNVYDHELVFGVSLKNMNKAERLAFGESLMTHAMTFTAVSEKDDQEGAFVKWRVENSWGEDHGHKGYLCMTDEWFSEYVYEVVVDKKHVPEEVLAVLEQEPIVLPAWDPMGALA

Compound	Acid-soluble DNA (%) [1, 3]	Acid-soluble DNA (%) [1, 4]	Acid-soluble DNA (%) ([1]; sample concentration 25 mcg/ml)	50% growth inhibitory concentration (ID50) against cultured HeLa S3 cells (HeLa S3 cells)	Antimicrobial activity [2, 5]	Antimicrobial activity [2, 6]	Antimicrobial activity [2, 7]	Antimicrobial activity [2, 8]	Resistance to inactivating enzyme (residual activity with reaction time, FIGS. 1 to 6) (inactivating enzyme)
3-(3-n-butylaminopropylamino)propylamino-N-methylbleomycin [Compound (6)]	59.5%	94.0%	100.4%	0.37 µg/mL	3,695 mcg units/mg	3,438 mcg units/mg			
3-[(S)-1'-phenylethylamino]propylamino-N-methylbleomycin [Compound (5)]	70.1%	92.6%	100.5%	0.30 µg/mL	4,266 mcg units/mg	4,333 mcg units/mg	4,320 mcg units/mg	4,280 mcg units/mg	
Bleomycin B2 [reference compound]	85.6%	95.8%	98.2%	0.80 µg/mL					
Cc1c(N)nc([C@H](CC(N)=O)NC[C@H](N)C(N)=O)nc1C(=O)N[C@H](C(=O)N[C@H](C)[C@@H](O)[C@H](C)C(=O)N[C@H](C(=O)NCCc1nc(-c2nc(C(=O)NCCC[S+](C)C)cs2)cs1)[C@@H](C)O)[C@@H](O[C@@H]1O[C@@H](CO)[C@@H](O)[C@H](O)[C@@H]1O[C@H]1O[C@H](CO)[C@@H](O)[C@H](OC(N)=O)[C@@H]1O)c1c[nH]cn1.[Br-] [Bleomycin A2, reference compound]	78.6%	90.8%	100.9%	0.73 µg/mL					
N-methylbleomycin A2 [Compound (2)]	64.6%	90.7%	99.9%	0.81 µg/mL	423 mcg units/mg	513 mcg units/mg	520 mcg units/mg and 516 mcg units/mg and 507 mcg units/mg	418 mcg units/mg and 427 mcg units/mg and 420 mcg units/mg	
N-methylbleomycin A2 '-b [Compound (4)]	61.7%	94.1%	99.4%	0.58 µg/mL	625 mcg units/mg	595 mcg units/mg		618 mcg units/mg	
Cc1c(N)nc(C(CC(N)=O)NCC(N)C(N)=O)nc1C(=O)NC(C(=O)NC(C)C(O)C(C)C(=O)NC(C(=O)NCCc1nc(-c2nc(C(=O)NCCCNC(C)c3ccccc3)cs2)cs1)C(C)O)C(OC1OC(CO)C(O)C(O)C1OC1OC(CO)C(O)C(OC(N)=O)C1O)c1c[nH]cn1 [3-[(S)-1'-phenylethylamino]propylaminobleomycin, reference compound]				0.52 µg/mL					
N-methylbleomycinic acid [Compound (1)]				4.8 µg/mL	64 mcg units/mg	59 mcg units/mg			
N-methylbleomycin B2 [Compound (3)]	87.6%	95.5%	102.1%	0.35 µg/mL	1,755 mcg units/mg	1,766 mcg units/mg	1,758 mcg units/mg and 1,770 mcg units/mg	1,752 mcg units/mg and 1,756 mcg units/mg	
Cc1c(N)nc(C(CC(N)=O)NCC(N)C(N)=O)nc1C(=O)NC(C(=O)NC(C)C(O)C(C)C(=O)NC(C(=O)NCCc1nc(-c2nc(C(=O)O)cs2)cs1)C(C)O)C(OC1OC(CO)C(O)C(O)C1OC1OC(CO)C(O)C(OC(N)=O)C1O)c1cnc[nH]1 (centres unmarked) [Bleomycinic acid, reference compound]				18 µg/mL					markedly susceptible
3-(3-n-butylaminopropylamino)propylaminobleomycin [reference compound]				0.43 µg/mL					
Cc1c(N)nc([C@H](CC(N)=O)NC[C@H](N)C(N)=O)nc1C(=O)N[C@H](C(=O)N[C@H](C)[C@@H](O)[C@H](C)C(=O)N[C@H](C(=O)NCCc1nc(-c2nc(C(=O)NCCCN)cs2)cs1)[C@@H](C)O)[C@@H](O[C@@H]1O[C@@H](CO)[C@@H](O)[C@H](O)[C@@H]1O[C@H]1O[C@H](CO)[C@@H](O)[C@H](OC(N)=O)[C@@H]1O)c1cnc[nH]1 [Bleomycin A2 -b, bleomycin A2 '-b, reference compound]				1.5 µg/mL					
